The text below walks through data of PubChem BioAssay AID1996.

In general, kinetic solubility refers to solubility judged after dilution from a stock solution rather than from solid.

Structures are written as SMILES. In brackets after ≈: the same amount, converted by molar mass. Where only a bound is given, the exact number is not on record here.

The conditions of this series: buffer; pH 7.4; 200.0 µM.
`O=C(NCCCn1ccnc1)C1CCN(S(=O)(=O)c2cc([N+](=O)[O-])ccc2Cl)CC1` displayed a solubility (kinetic) greater than 68.4 µg/mL.

The compound `O=[N+]([O-])c1ccc2c(c1)nc1n2CCN(c2ccccc2)C1` returned a solubility (kinetic) of 6.8 µg/mL (≈ 23.1 µM).

In turn, `COc1ccc2c(c1)c(C(C)=O)c(C)n2-c1ccc(C(C)=O)cc1` registered a kinetic solubility of less than 0.7 µg/mL.

With `Cc1ccc(OCCN2CCCC2)cc1.O=C(O)C(=O)O`, the solubility (kinetic) is greater than 44.3 µg/mL.

`COc1ccc(CN2CCc3c([nH]c4ccccc34)C2)cc1Br` showed a kinetic solubility of 9.8 µg/mL (≈ 26.4 µM).

For the compound `CC1C(=O)Nc2ccccc2N1C(=O)c1cccc(C(F)(F)F)c1` (stereo unspecified), the solubility (kinetic) was greater than 50.1 µg/mL.

The compound `Cc1ccccc1-c1nnc(SCCC(=O)N2CCOCC2)o1` gave a kinetic solubility greater than 50 µg/mL.

In turn, `N/C(=N\OC(=O)C1CCCCC1)c1ccc(Cl)cc1` came in with a kinetic solubility of 8.1 µg/mL (≈ 28.9 µM).

Regarding `CC(C(=O)NC(C)(C)C)N1C(=O)c2cccc3cccc(c23)C1=O` (stereo unspecified), the kinetic solubility was determined as 40.2 µg/mL (≈ 124 µM).

As for `CCN1CCN(Cc2nnc(-c3ccc(C)cc3)o2)CC1`, the solubility (kinetic) is greater than 43 µg/mL.

With `CC(C)(C)C(=O)Nc1c(Cl)cccc1OC(F)(F)F`, the kinetic solubility amounted to 34.2 µg/mL (≈ 116 µM).

On to `CC(C)C1Oc2ccccc2N(CC(=O)N2CCOCC2)C1=O` (stereo unspecified), for which the solubility (kinetic) is greater than 47.8 µg/mL.

For the compound `Cn1ccnc1Sc1ccc(C(N)=O)cc1[N+](=O)[O-]`, the solubility (kinetic) is 38.7 µg/mL (≈ 139 µM).

Turning to `O=C(CCCOc1ccc(Cl)cc1Cl)Nc1ncccn1`, the kinetic solubility was found to be 7.7 µg/mL (≈ 23.6 µM).

Consider `CCOC(=O)C1=C(CC)Nc2ccccc2N/C1=N\S(=O)(=O)c1cccc(C(C)=O)c1`, for which the kinetic solubility was greater than 66.2 µg/mL.

In the case of `O=C(CN1C(=O)c2ccccc2C1=O)Nc1ccccc1`, the solubility (kinetic) amounted to 18.9 µg/mL (≈ 67.4 µM).

Take `O=C(NC(=O)c1ccccc1Cl)Nc1ccc(-c2cnco2)cc1`: the kinetic solubility was less than 0.2 µg/mL.

Compound `CC1(NC(=S)Nc2ccccc2)CCS(=O)(=O)C1` (stereo unspecified) yielded a solubility (kinetic) greater than 42.7 µg/mL.

Compound `Cc1noc(C)c1S(=O)(=O)N1CCC(C(N)=O)CC1` yielded a solubility (kinetic) greater than 43.1 µg/mL.

`COc1cc2c(cc1OC)C(c1cccc(Br)c1)NC(=O)C2` (stereo unspecified) had a solubility (kinetic) of 43 µg/mL (≈ 119 µM).

In turn, `COc1cc(NC(=O)COC(=O)c2[nH]c(C)c(C(C)=O)c2C)cc(OC)c1` registered a kinetic solubility of 4 µg/mL (≈ 10.7 µM).

On to `COc1ccc(CNC(=O)C(=O)NCCCn2ccnc2)cc1`, for which the solubility (kinetic) was greater than 47.5 µg/mL.

Consider `CC(C)(C)OC(=O)NCCC(=O)N/N=C/c1ccc2nccnc2c1`, for which the solubility (kinetic) is greater than 51.5 µg/mL.

The compound `CCN(CC)S(=O)(=O)c1nnc(NC(=O)c2ccco2)s1` showed a kinetic solubility greater than 49.6 µg/mL.

In turn, `CCOC(=O)C1=C(C)N=C2SC(C)C(=O)N2C1c1ccccc1` (stereo unspecified) registered a solubility (kinetic) of 48.5 µg/mL (≈ 147 µM).

As for `Oc1ccc(Cl)cc1CNc1cnc2ccccc2c1`, the solubility (kinetic) amounted to 1.2 µg/mL (≈ 4.21 µM).

The compound `COc1ccc2nc(Nc3nc(-c4ccncc4)cs3)sc2c1` showed a kinetic solubility of 0.8 µg/mL (≈ 2.35 µM).

On to `O=C(NCc1ccccc1F)C1CCCN1C(=O)Nc1ccccc1` (stereo unspecified), for which the kinetic solubility is greater than 51.2 µg/mL.

`COc1ccc(-c2noc(CSc3nc(N)cc(=O)[nH]3)n2)cc1` yielded a kinetic solubility of 7.7 µg/mL (≈ 23.2 µM).

On to `O=C(NCCc1ccc(F)cc1)c1coc(=O)c(Br)c1`, for which the solubility (kinetic) was found to be 2.9 µg/mL (≈ 8.53 µM).

`Cc1nn(C)c(Cl)c1/C=N/OC(=O)c1ccccc1` had a kinetic solubility greater than 41.7 µg/mL.

`Cc1ccc(C(C)NC(=O)c2ccncc2)c(C)c1` (stereo unspecified) came in with a kinetic solubility greater than 38.1 µg/mL.

For `CCOc1ccc2c(c1)ncn2Cc1ccccc1`, the kinetic solubility is 32.4 µg/mL (≈ 128 µM).

In turn, `Cc1ccc(NC(=O)COc2ccc(Br)cn2)cc1` displayed a solubility (kinetic) of 17.7 µg/mL (≈ 55.1 µM).

`O=C(Nc1ccc2c(c1)OCO2)C1CCCCC1` yielded a kinetic solubility greater than 37.1 µg/mL.

Consider `CC(=O)c1c(COC(=O)c2ccc(C)cc2)nc2ccccc2[n+]1[O-]`, for which the kinetic solubility came out at 2.7 µg/mL (≈ 8.03 µM).

With `O=C(Nc1nccs1)c1ccc(CSc2ccccc2)o1`, the solubility (kinetic) was found to be 1.6 µg/mL (≈ 5.06 µM).

In turn, `COc1ccc(CCNC(=O)COC(=O)C2CC2)cc1OC` gave a solubility (kinetic) greater than 46.1 µg/mL.

In turn, `Cc1cccc(NC(=O)c2cnccn2)c1` returned a solubility (kinetic) of 22.1 µg/mL (≈ 104 µM).

`COc1ccc(C(=O)OCC(=O)NC2CCCCCCC2)cc1OC` had a kinetic solubility of 29 µg/mL (≈ 83 µM).

For the compound `COc1cc(C(=O)O)cc(NC(=O)c2ccco2)c1OC`, the solubility (kinetic) is greater than 43.7 µg/mL.

For `Cc1c(C=C2C(=O)NC(=O)NC2=O)c(=O)n(-c2ccccc2)n1C`, the solubility (kinetic) was greater than 48.9 µg/mL.

`Cc1cc(/C=C2\SC(=S)NC2=O)c(C)[nH]1` had a kinetic solubility greater than 35.7 µg/mL.

Turning to `N#CCCN(C(=O)CN1c2cccc3cccc(c23)S1(=O)=O)c1ccccc1`, the solubility (kinetic) was 15 µg/mL (≈ 38.3 µM).

Regarding `Cc1cc(C(=O)Nc2ccc(Cl)cc2)on1`, the kinetic solubility was determined as 3.8 µg/mL (≈ 16.1 µM).

Consider `CCN(CC)CCOC(=O)/C=C/c1ccccc1.Cl`, for which the solubility (kinetic) turned out to be 38.5 µg/mL.

Take `CCN1CC(CN(C)Cc2nc(Cc3ccccc3)no2)CC1=O` (stereo unspecified): the kinetic solubility is greater than 49.3 µg/mL.

`OCCN1CCN(c2ncnc3sc4c(c23)CCCC4)CC1` registered a kinetic solubility greater than 47.8 µg/mL.

`CCc1ccc(S(=O)(=O)N2CCN(C(=O)c3cccnc3)CC2)cc1` registered a solubility (kinetic) greater than 53.9 µg/mL.

Consider `O=C(NC1CCCCC1)c1cccc(S(=O)(=O)N2CCCCC2)c1`, for which the solubility (kinetic) is 5.6 µg/mL (≈ 16 µM).

As to `CC(=O)OC(C(=O)NC1CCCCC1)c1cccc(F)c1` (stereo unspecified), the kinetic solubility is greater than 44 µg/mL.
